What was measured:
[1] = target: T1, Recombinant human inducible nitric oxide synthase (hiNOS) (Homo sapiens, UniProt P35228); experiment: Citrulline Assay for Nitric Oxide Synthase (hiNOS); assay type: biochemical; conditions: for IC50: conversion of [3H]-arginine to [3H]-citrulline, 30 µM L-arginine, 37°C, 15 minutes
T1 construct: made in house; host or cells: Sf9 insect cells (recombinant baculovirus)
Description: (§1) Nitric oxide synthase activity was measured by monitoring the conversion of [^3H]-arginine to [^3H]-citrulline. Mouse inducible nitric oxide synthase (miNOS) was prepared from an extract of LPS-treated RAW 264.7 cells and partially purified by DEAE-Sepharose chromatography. Rat brain constitutive nitric oxide synthase (rnNOS) was prepared from an extract of rat cerebellum and partially purified by DEAE-Sepharose chromatography. Enzyme and inhibitors were incubated at 37°C for 15 minutes in a reaction volume of 100 µL with the following components added to start the reaction: 50 mM Tris (pH 7.6), 1 mg/ml bovine serum albumin, 1 mM DTT, 2 mM CaCl2, 10 µM FAD, 10 µM tetrahydrobiopterin, 30 µM L-arginine containing L-[2,3-^3H]-arginine at 300 cpm/pmole and 1 mM NADPH. For constitutive NOS, 50 nM calmodulin was also added. The reaction was terminated by addition of cold stop buffer containing 10 mM EGTA, 100 mM HEPES, pH 5.5 and 1 mM citrulline. [^3H]-Citrulline was separated by chromatography on Dowex 50W X-8 cation exchange resin and radioactivity determined with a liquid scintillation counter.
Recombinant human inducible nitric oxide synthase (hiNOS) was extracted from Sf9 insect cells (infected with recombinant baculoviruses encoding a cDNA for human inducible nitric oxide synthase which has been isolated and purified from a lambda Zapll cDNA library made from RNA isolated from a colon sample from a patient with ulcerative colitis) and partially purified by DEAE-chromatography.

[2] = target: T2, Rat brain constitutive nitric oxide synthase (rnNOS) (Rattus norvegicus, UniProt P29476); experiment: Citrulline Assay for Nitric Oxide Synthase (rnNOS); assay type: biochemical; conditions: for IC50: conversion of [3H]-arginine to [3H]-citrulline, 30 µM L-arginine, 50 nM calmodulin added
T2 construct: prepared from an extract of rat cerebellum and partially purified by DEAE-Sepharose chromatography; from tissue; host or cells: rat cerebellum
T2 sequence (P29476 whole entry): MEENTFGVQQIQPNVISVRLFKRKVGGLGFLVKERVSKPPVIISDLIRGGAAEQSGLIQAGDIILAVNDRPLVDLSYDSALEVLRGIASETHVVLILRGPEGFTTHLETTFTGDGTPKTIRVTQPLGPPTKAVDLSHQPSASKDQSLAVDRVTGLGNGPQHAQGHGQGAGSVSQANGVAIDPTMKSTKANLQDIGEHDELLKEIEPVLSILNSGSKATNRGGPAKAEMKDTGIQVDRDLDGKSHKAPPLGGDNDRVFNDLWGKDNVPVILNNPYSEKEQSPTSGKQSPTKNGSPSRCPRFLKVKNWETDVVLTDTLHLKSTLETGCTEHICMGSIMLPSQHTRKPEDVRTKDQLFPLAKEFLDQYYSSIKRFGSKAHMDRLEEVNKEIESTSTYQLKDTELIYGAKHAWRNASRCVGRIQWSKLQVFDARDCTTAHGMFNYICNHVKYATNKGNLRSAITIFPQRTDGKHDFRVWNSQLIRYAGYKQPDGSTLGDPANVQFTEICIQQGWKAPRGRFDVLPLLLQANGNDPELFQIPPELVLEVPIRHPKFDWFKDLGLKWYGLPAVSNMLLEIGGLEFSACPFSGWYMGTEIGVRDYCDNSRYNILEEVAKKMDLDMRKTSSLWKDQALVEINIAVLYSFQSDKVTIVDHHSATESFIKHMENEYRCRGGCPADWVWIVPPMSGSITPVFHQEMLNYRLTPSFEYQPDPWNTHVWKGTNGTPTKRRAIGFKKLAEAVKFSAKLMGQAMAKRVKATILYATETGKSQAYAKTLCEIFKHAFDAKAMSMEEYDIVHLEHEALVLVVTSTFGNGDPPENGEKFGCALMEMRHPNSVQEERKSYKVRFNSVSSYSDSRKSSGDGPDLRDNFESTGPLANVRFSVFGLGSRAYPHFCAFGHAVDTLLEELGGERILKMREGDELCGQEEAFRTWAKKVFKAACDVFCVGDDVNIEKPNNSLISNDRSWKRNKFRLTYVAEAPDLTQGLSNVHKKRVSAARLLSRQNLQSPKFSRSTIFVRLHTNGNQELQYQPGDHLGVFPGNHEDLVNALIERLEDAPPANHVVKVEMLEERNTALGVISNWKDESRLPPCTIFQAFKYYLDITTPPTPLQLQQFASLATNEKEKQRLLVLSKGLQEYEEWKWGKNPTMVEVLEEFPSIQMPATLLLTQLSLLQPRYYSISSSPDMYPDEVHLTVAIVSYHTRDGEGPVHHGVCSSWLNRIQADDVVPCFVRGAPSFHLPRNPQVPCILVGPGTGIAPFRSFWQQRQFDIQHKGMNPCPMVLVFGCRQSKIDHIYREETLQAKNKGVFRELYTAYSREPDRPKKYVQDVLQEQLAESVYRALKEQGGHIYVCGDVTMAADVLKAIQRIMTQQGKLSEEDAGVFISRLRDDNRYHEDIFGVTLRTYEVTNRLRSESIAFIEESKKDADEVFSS
Description: as §1

[3] = target: T3, Mouse inducible nitric oxide synthase (miNOS) (Mus musculus, UniProt P29477); experiment: Citrulline Assay for Nitric Oxide Synthase (miNOS); assay type: biochemical; conditions: for IC50: conversion of [3H]-arginine to [3H]-citrulline, 30 µM L-arginine, 37°C, 15 minutes
T3 construct: prepared from an extract of LPS-treated RAW 264.7 cells and partially purified by DEAE-Sepharose chromatography; endogenous in cells; host or cells: LPS-treated RAW 264.7 cells
T3 sequence (P29477 whole entry): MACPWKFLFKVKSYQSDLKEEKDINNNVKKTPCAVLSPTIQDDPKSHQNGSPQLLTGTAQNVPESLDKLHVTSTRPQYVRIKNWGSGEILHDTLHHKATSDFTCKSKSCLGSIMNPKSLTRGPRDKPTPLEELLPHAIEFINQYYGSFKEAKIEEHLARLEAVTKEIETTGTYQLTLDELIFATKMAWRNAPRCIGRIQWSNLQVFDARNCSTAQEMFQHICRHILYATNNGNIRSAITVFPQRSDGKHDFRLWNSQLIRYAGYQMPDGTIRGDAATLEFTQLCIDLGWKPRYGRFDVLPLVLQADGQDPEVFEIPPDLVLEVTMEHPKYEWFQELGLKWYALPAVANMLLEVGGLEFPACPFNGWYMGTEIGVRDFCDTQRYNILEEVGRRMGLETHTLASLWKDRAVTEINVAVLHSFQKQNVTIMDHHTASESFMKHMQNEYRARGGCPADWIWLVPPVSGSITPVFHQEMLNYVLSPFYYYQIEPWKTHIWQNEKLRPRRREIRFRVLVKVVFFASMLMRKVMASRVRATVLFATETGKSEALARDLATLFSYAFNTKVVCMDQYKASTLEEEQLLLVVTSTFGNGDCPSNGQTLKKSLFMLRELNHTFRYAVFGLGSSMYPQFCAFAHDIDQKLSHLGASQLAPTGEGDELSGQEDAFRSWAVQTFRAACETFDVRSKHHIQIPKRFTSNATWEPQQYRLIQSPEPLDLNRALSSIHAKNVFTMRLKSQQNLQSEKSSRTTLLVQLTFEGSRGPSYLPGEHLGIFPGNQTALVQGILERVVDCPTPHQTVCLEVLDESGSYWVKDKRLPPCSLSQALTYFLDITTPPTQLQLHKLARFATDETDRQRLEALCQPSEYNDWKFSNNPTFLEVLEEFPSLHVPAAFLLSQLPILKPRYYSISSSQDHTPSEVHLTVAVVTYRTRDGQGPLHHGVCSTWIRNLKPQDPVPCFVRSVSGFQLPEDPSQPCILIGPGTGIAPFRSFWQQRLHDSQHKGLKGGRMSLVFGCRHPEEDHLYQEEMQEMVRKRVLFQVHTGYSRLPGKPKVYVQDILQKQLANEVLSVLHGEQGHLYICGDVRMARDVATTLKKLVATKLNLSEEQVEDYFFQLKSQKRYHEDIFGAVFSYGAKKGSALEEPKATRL
Description: as §1

RAW 264.7 cells = experiment: Raw Cell Nitrite Assay; assay type: cell-based; conditions: Mus musculus, RAW264.7; for IC50: nitrite production by intracellular iNOs, LPS-induced RAW 264.7 cells, L-arginine 30 µM
Description: RAW 264.7 cells are plated to confluency on a 96-well tissue culture plate grown overnight (17h) in the presence of LPS to induce NOS. A row of 3-6 wells were left untreated and served as controls for subtraction of nonspecific background. The media was removed from each well and the cells are washed twice with Krebs-Ringers-Hepes (25mM, pH 7.4) with 2 mg/ml glucose. The cells are then placed on ice and incubated with 50 µL of buffer containing L-arginine (30 µM) +/- inhibitors for lh. The assay is initiated by warming the plate to 37°C in a water bath for lh. Production of nitrite by intracellular iNOs is linear with time. To terminate the cellular assay, the plate of cells is placed on ice and the nitrite-containing buffer removed and analyzed for nitrite using a previously published fluorescent determination for nitrite. All values are the average of triplicate wells and are compared to a background-subtracted induced set of cells (100% value).

| Compound | IC50 [1] [µM] | IC50 [2] [µM] | IC50 [3] [µM] | IC50 (RAW 264.7 cells) [µM] | inhibition at 10 µM ([1]; @ 10 µM, read-out: hiNos Inh.) [%] | inhibition at 10 µM ([2]; @ 10 µM, read-out: rnNOS Inh.) [%] | inhibition at 10 µM ([3]; @ 10 µM, read-out: miNOS Inh.) [%] | inhibition at 10 µM (RAW 264.7 cells; @ 10 µM, read-out: Raw Cell Inh.) [%] |
| --- | --- | --- | --- | --- | --- | --- | --- | --- |
| CC(=N)NCCCCC(C)(N)C(=O)O (racemic) [Example 2] | 26.6 | 193 | 7.2 | 52.5 |  |  |  |  |
| CC(=N)NCC[Se]CC(N)C(=O)O (racemic) [Example 3, Nε-iminoethyl-aminoethylselenocysteine] | 35.5 | 229 | 5 | 0.37 |  |  |  |  |
| CC(=N)NCCCC(C)(N)C(=O)O (stereo not shown) [Example 1] | 73.5 | 356 | 34.9 | 25 |  |  |  |  |
| CC(=N)NCCCCC(N)(CO)C(=O)O (racemic) [Example 4] |  |  |  |  | 39 | 8.6 | 39 | 8.6 |

From patent EP0751930B1 (G.D. SEARLE & CO., priority 1994, dated 1995)
